The text below walks through data of PMC4851326, “Pharmacologic Comparison of Clinical Neutral Endopeptidase Inhibitors in a Rat Model of Acute Secretory Diarrhea” (The Journal of Pharmacology and Experimental Therapeutics, 2016).

Molecules are shown by their SMILES.

The target of assay [1] is T1, IDE (Homo sapiens, UniProt P14735).
T1 construct: purchased R&D Systems (Minneapolis, MN)
T1 sequence (P14735 1-1019): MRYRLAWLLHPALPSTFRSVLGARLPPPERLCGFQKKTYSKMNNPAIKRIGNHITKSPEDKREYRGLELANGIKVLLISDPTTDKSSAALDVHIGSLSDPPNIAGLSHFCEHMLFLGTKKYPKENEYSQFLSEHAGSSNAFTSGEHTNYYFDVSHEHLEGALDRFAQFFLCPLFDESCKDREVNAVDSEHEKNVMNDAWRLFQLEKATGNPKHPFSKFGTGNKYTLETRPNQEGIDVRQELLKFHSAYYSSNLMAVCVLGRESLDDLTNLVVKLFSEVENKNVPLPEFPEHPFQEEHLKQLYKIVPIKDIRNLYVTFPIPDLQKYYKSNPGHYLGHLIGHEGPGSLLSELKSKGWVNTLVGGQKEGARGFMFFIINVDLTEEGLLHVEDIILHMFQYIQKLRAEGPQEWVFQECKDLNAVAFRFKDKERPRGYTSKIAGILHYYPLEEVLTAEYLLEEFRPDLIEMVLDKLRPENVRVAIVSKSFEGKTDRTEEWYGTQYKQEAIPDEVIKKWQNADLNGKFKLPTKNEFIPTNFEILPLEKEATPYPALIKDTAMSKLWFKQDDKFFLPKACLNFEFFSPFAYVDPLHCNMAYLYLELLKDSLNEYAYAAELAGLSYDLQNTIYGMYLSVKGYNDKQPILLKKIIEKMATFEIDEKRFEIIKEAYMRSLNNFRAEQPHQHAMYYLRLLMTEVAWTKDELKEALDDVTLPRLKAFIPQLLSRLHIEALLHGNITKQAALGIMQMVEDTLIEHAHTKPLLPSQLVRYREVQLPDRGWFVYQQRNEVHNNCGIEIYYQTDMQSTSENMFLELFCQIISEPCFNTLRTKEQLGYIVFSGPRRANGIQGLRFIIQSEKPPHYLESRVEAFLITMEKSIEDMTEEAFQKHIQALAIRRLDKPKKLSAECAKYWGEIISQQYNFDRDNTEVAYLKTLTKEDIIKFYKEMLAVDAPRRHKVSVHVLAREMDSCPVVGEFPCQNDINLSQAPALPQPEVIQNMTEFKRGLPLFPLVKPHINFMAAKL
The experiment in a line: Purified peptidase assay, IDE. The note with it: recombinant purified human enzyme; for prodrugs the active form was tested. Type of assay: biochemical. The protocol:
(§1) Purified recombinant human enzymes were purchased from R&D Systems (Minneapolis, MN). […] Each substrate was diluted to 100 μM in the assay buffer recommended for each enzyme by the supplier. […] To these, 5 μl of diluted enzyme was added, followed by 10 μl of the quenched peptide substrate. The plates were incubated at 37°C until at least 10% substrate turnover or 5 μM product had formed. Fluorescence was measured using a Tecan Safire II (Excitation 320 nm/Emission 420 nm). Each plate included a standard curve of reaction product and positive (no enzyme) and negative (dimethyl sulfoxide vehicle) controls. Dose-response data were plotted and inhibition values (IC50) determined by linear regression analysis using GraphPad Prism (GraphPad Software, La Jolla, CA).

The subject of assay [2] is castor oil–induced diarrhea. The experiment in a line: Castor oil–induced diarrhea model. Type of assay: in vivo, rat. The note with it: single oral dose 30 minutes before castor oil, fasted rats, vs vehicle (Fig. 1). The protocol:
Experiments were performed with 6-to-7-week-old male Wistar rats obtained from Charles River Laboratories (Wilmington, MA). All animals were housed in Saint Louis University facilities under controlled conditions of temperature, humidity, and a 12-hour light/dark cycle. They were maintained on standard rodent chow with free access to water. Animal care and all procedures were performed in accordance with the National Institutes of Health Guide for the Care and Use of Laboratory Animals and approved by the university’s institutional animal care and use committee.
Animals were weighed and individually housed in metabolic cages containing white paper underneath to collect feces. Test compounds or vehicles were administered by oral gavage (5 ml/kg), and then at indicated times, 10 ml/kg body weight of 100% castor oil was administered by oral gavage to induce diarrhea. Animals had access to food within 5 minutes. Stool weight was recorded starting 15 minutes after castor oil administration and repeated every 15 minutes up to 4 hours. […] After 4 hours, animals were euthanized with CO2, and blood and tissues were collected for analyses.

Assay [3] addresses T2, ECE-1 (Homo sapiens, UniProt P42892).
T2 construct: purchased R&D Systems (Minneapolis, MN)
T2 sequence (P42892 1-770): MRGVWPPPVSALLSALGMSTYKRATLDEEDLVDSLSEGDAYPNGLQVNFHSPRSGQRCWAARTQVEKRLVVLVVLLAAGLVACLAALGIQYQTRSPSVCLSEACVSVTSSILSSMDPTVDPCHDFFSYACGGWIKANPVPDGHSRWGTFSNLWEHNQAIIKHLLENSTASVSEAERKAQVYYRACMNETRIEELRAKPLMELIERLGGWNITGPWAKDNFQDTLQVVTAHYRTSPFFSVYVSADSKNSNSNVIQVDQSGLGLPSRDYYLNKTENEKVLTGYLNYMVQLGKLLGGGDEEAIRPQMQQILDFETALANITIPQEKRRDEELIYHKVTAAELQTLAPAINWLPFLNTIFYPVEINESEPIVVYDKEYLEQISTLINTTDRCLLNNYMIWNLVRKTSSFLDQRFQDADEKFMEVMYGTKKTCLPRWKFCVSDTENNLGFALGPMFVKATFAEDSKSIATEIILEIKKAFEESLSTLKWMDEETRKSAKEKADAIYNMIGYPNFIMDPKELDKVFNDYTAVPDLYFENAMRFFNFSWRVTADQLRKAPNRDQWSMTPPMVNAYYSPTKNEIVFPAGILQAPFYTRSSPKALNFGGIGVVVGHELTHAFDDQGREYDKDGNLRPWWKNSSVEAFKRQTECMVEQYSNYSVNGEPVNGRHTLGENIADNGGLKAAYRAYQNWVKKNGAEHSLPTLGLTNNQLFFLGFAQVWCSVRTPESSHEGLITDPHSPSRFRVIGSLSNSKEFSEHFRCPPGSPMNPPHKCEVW
The assay is described as follows: biochemical. The note with it: recombinant purified human enzyme; for prodrugs the active form was tested. The protocol:
as §1

Assay [4] has as its target T3, NEP (Homo sapiens, UniProt P08473).
T3 construct: purchased R&D Systems (Minneapolis, MN)
The experiment in a line: Purified peptidase assay, NEP. Type of assay: biochemical. As to conditions: recombinant purified human enzyme; for prodrugs the active form was tested. The protocol:
as §1

T3 sequence (P08473 whole entry): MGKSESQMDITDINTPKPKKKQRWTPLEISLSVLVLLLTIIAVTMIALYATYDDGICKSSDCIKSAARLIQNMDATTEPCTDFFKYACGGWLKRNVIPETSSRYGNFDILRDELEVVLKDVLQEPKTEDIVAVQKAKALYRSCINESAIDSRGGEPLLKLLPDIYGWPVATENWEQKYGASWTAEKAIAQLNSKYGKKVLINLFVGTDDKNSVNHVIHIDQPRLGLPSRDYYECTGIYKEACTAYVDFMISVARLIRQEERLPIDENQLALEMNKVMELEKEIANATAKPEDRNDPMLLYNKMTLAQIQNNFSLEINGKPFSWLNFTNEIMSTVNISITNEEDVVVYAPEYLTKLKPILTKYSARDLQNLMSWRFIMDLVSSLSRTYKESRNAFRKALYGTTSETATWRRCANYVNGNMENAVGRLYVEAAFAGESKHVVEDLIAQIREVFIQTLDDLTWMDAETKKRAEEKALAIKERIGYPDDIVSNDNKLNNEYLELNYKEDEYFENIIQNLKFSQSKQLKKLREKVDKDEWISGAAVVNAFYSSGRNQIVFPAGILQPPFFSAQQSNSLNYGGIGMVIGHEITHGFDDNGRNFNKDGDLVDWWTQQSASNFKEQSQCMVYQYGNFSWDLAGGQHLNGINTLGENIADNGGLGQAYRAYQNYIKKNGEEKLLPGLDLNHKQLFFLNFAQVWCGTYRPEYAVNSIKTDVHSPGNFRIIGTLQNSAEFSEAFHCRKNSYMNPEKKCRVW

For `Cc1nc2ccc(CCCNC(=O)C3(C[C@@H](C)C(=O)O)CCCC3)cc2s1` [UK-505,749, (R)-2-methyl-3-(1-((3-(2-methylbenzo[d]thiazol-6-yl)propyl)carbamoyl)cyclopentyl)propanoic acid], the results for the IC50 in assay [1], in assay [3] and in assay [4] were over 100 µM, 3.3 µM and 0.004 µM, respectively. For the same molecule, in assay [2], the “Cumulative stool output over 4 hours” value was “significantly reduced”.
